# Data: ChEMBL document CHEMBL3885881, “DrugMatrix”
# Organism: Rattus norvegicus
# Assay: DrugMatrix - Regimen: Daily Repeat
# Assay type: toxicity, organism-based, Sprague-Dawley
# Parameters: regimen Daily Repeat, gender Male, age 6-8 weeks
# Details: in vivo, po, 100 mg/kg, route oral GAVAGE, […]; for ABSOLUTE BASOPHIL / ABSOLUTE EOSINOPHIL / ABSOLUTE LYMPHOCYTE / ABSOLUTE MONOCYTE / ABSOLUTE SEGMENTED NEUTROPHIL / BASOPHIL / EOSINOPHIL / ERYTHROCYTE COUNT / HEMATOCRIT / HEMOGLOBIN / LEUKOCYTE COUNT / LYMPHOCYTE / MEAN CORPUSCULAR HEMOGLOBIN / MEAN CORPUSCULAR HEMOGLOBIN CONCENTRATION / MEAN CORPUSCULAR VOLUME / MONOCYTE / NEUTROPHIL / NUCLEATED RED BLOOD CELLS / PLATELET COUNT: tissue Blood; for ALANINE AMINOTRANSFERASE / ALBUMIN / ALKALINE PHOSPHATASE / ASPARTATE AMINOTRANSFERASE / BLOOD UREA NITROGEN / CARBON DIOXIDE / CHLORIDE / CHOLESTEROL / CREATINE PHOSPHOKINASE / CREATININE / GLUCOSE / LACTATE DEHYDROGENASE / LIPASE / PHOSPHORUS / POTASSIUM / SODIUM / TOTAL BILIRUBIN / TOTAL PROTEIN / URIC ACID: tissue Plasma
# [1] = 72 h, dose level Low, time 3 day
# [2] = 120 h, dose level High, time 5 day
structure (smiles),measurement,setting,value
CC(C)(Oc1ccc(CCNC(=O)c2ccc(Cl)cc2)cc1)C(=O)O [BEZAFIBRATE],ABSOLUTE BASOPHIL,[1],0 CELLS/uL
same,ABSOLUTE EOSINOPHIL,[1],180.5 CELLS/uL
same,ABSOLUTE LYMPHOCYTE,[1],13739.67 CELLS/uL
same,ABSOLUTE MONOCYTE,[1],378 CELLS/uL
same,ABSOLUTE SEGMENTED NEUTROPHIL,[1],1401.83 CELLS/uL
same,BASOPHIL,[1],0%
same,EOSINOPHIL,[1],1.17%
same,ERYTHROCYTE COUNT,[1],5.45 x10E6/uL
same,HEMATOCRIT,[1],33.9%
same,HEMOGLOBIN,[1],13.37 G/DL
same,LEUKOCYTE COUNT,[1],15.7 x10E3/uL
same,LYMPHOCYTE,[1],87.33%
same,MEAN CORPUSCULAR HEMOGLOBIN,[1],24.55 pg
same,MEAN CORPUSCULAR HEMOGLOBIN CONCENTRATION,[1],39.42 G/DL
same,MEAN CORPUSCULAR VOLUME,[1],62.22 fL
same,MONOCYTE,[1],2.33%
same,NEUTROPHIL,[1],9.17%
same,NUCLEATED RED BLOOD CELLS,[1],0 /100WBC
same,PLATELET COUNT,[1],1134.83 x10E3/uL
same,ALANINE AMINOTRANSFERASE,[1],55.83 u/L
same,ALBUMIN,[1],4.3 G/DL
same,ALKALINE PHOSPHATASE,[1],373.17 u/L
same,ASPARTATE AMINOTRANSFERASE,[1],81 u/L
same,BLOOD UREA NITROGEN,[1],13.33 mg/dL
same,CARBON DIOXIDE,[1],28.33 mmol/L
same,CHLORIDE,[1],103.17 MEQ/L
same,CHOLESTEROL,[1],50.33 mg/dL
same,CREATINE PHOSPHOKINASE,[1],275.67 u/L
same,CREATININE,[1],0.14 mg/dL
same,GLUCOSE,[1],153.33 mg/dL
same,LACTATE DEHYDROGENASE,[1],111.33 u/L
same,LIPASE,[1],9.67 u/L
same,PHOSPHORUS,[1],10.52 mg/dL
same,POTASSIUM,[1],6.12 MEQ/L
same,SODIUM,[1],143.38 MEQ/L
same,TOTAL BILIRUBIN,[1],0.17 mg/dL
same,TOTAL PROTEIN,[1],5.68 G/DL
same,URIC ACID,[1],1.27 mg/dL
same,BASOPHIL,[2],0.3%
same,EOSINOPHIL,[2],0.42%
same,ERYTHROCYTE COUNT,[2],6.75 x10E6/uL
same,HEMATOCRIT,[2],45.06%
same,HEMOGLOBIN,[2],14.3 G/DL
same,LEUKOCYTE COUNT,[2],9.46 x10E3/uL
same,LYMPHOCYTE,[2],82.9%
same,MEAN CORPUSCULAR HEMOGLOBIN,[2],21.18 pg
same,MEAN CORPUSCULAR HEMOGLOBIN CONCENTRATION,[2],31.76 G/DL
same,MEAN CORPUSCULAR VOLUME,[2],66.76 fL
same,MONOCYTE,[2],2.08%
same,NEUTROPHIL,[2],12.9%
same,PLATELET COUNT,[2],1359.2 x10E3/uL
same,ALANINE AMINOTRANSFERASE,[2],30.4 u/L
same,ALBUMIN,[2],3.86 G/DL
same,ALKALINE PHOSPHATASE,[2],393.2 u/L
same,ASPARTATE AMINOTRANSFERASE,[2],76.8 u/L
same,BLOOD UREA NITROGEN,[2],8 mg/dL
same,CHLORIDE,[2],110.2 MEQ/L
same,CHOLESTEROL,[2],53.8 mg/dL
same,CREATINE PHOSPHOKINASE,[2],309.2 u/L
same,CREATININE,[2],0.58 mg/dL
same,GLUCOSE,[2],111.8 mg/dL
same,PHOSPHORUS,[2],13.26 mg/dL
same,POTASSIUM,[2],5.98 MEQ/L
same,SODIUM,[2],150.8 MEQ/L
same,TOTAL BILIRUBIN,[2],0.2 mg/dL
same,TOTAL PROTEIN,[2],5.94 G/DL
same,BASOPHIL,"dose level High, time 28 day",0.53%
same,EOSINOPHIL,"dose level High, time 28 day",0.56%
same,ERYTHROCYTE COUNT,"dose level High, time 28 day",7.67 x10E6/uL
same,HEMATOCRIT,"dose level High, time 28 day",46.81%
same,HEMOGLOBIN,"dose level High, time 28 day",15.51 G/DL
same,LEUKOCYTE COUNT,"dose level High, time 28 day",10.2 x10E3/uL
same,LYMPHOCYTE,"dose level High, time 28 day",83.76%
same,MEAN CORPUSCULAR HEMOGLOBIN,"dose level High, time 28 day",20.22 pg
same,MEAN CORPUSCULAR HEMOGLOBIN CONCENTRATION,"dose level High, time 28 day",33.13 G/DL
same,MEAN CORPUSCULAR VOLUME,"dose level High, time 28 day",61.05 fL
same,MONOCYTE,"dose level High, time 28 day",1.65%
same,NEUTROPHIL,"dose level High, time 28 day",12.36%
same,PLATELET COUNT,"dose level High, time 28 day",1339.5 x10E3/uL
same,ABSOLUTE BASOPHIL,"dose level Low, time 7 day",0 CELLS/uL
same,ABSOLUTE EOSINOPHIL,"dose level Low, time 7 day",36.5 CELLS/uL
same,ABSOLUTE LYMPHOCYTE,"dose level Low, time 7 day",7716 CELLS/uL
same,ABSOLUTE MONOCYTE,"dose level Low, time 7 day",109.33 CELLS/uL
same,ABSOLUTE SEGMENTED NEUTROPHIL,"dose level Low, time 7 day",821.5 CELLS/uL
same,BASOPHIL,"dose level Low, time 7 day",0%
same,EOSINOPHIL,"dose level Low, time 7 day",0.5%
same,ERYTHROCYTE COUNT,"dose level Low, time 7 day",5.31 x10E6/uL
same,HEMATOCRIT,"dose level Low, time 7 day",33.28%
same,HEMOGLOBIN,"dose level Low, time 7 day",13.1 G/DL
same,LEUKOCYTE COUNT,"dose level Low, time 7 day",8.68 x10E3/uL
same,LYMPHOCYTE,"dose level Low, time 7 day",88.67%
same,MEAN CORPUSCULAR HEMOGLOBIN,"dose level Low, time 7 day",24.67 pg
same,MEAN CORPUSCULAR HEMOGLOBIN CONCENTRATION,"dose level Low, time 7 day",39.37 G/DL
same,MEAN CORPUSCULAR VOLUME,"dose level Low, time 7 day",62.68 fL
same,MONOCYTE,"dose level Low, time 7 day",1.33%
same,NEUTROPHIL,"dose level Low, time 7 day",9.5%
same,NUCLEATED RED BLOOD CELLS,"dose level Low, time 7 day",0 /100WBC
same,PLATELET COUNT,"dose level Low, time 7 day",1167.33 x10E3/uL
same,ALANINE AMINOTRANSFERASE,"dose level High, time 28 day",33.6 u/L
same,ALBUMIN,"dose level High, time 28 day",4.04 G/DL
same,ALKALINE PHOSPHATASE,"dose level High, time 28 day",358.2 u/L
same,ASPARTATE AMINOTRANSFERASE,"dose level High, time 28 day",65.4 u/L
same,BLOOD UREA NITROGEN,"dose level High, time 28 day",15.6 mg/dL
same,CHLORIDE,"dose level High, time 28 day",108.6 MEQ/L
same,CHOLESTEROL,"dose level High, time 28 day",43.2 mg/dL
same,CREATINE PHOSPHOKINASE,"dose level High, time 28 day",130.9 u/L
same,CREATININE,"dose level High, time 28 day",0.51 mg/dL
same,GLUCOSE,"dose level High, time 28 day",147.9 mg/dL
same,PHOSPHORUS,"dose level High, time 28 day",11.62 mg/dL
same,POTASSIUM,"dose level High, time 28 day",6.83 MEQ/L
same,SODIUM,"dose level High, time 28 day",152.6 MEQ/L
same,TOTAL BILIRUBIN,"dose level High, time 28 day",0.2 mg/dL
same,TOTAL PROTEIN,"dose level High, time 28 day",6.41 G/DL
same,ALANINE AMINOTRANSFERASE,"dose level Low, time 7 day",52.17 u/L
same,ALBUMIN,"dose level Low, time 7 day",4.67 G/DL
same,ALKALINE PHOSPHATASE,"dose level Low, time 7 day",346.67 u/L
same,ASPARTATE AMINOTRANSFERASE,"dose level Low, time 7 day",68.17 u/L
same,BLOOD UREA NITROGEN,"dose level Low, time 7 day",17.67 mg/dL
same,CARBON DIOXIDE,"dose level Low, time 7 day",30.83 mmol/L
same,CHLORIDE,"dose level Low, time 7 day",102.83 MEQ/L
same,CHOLESTEROL,"dose level Low, time 7 day",57.83 mg/dL
same,CREATINE PHOSPHOKINASE,"dose level Low, time 7 day",307.17 u/L
same,CREATININE,"dose level Low, time 7 day",0.24 mg/dL
same,GLUCOSE,"dose level Low, time 7 day",145.67 mg/dL
same,LACTATE DEHYDROGENASE,"dose level Low, time 7 day",85.5 u/L
same,LIPASE,"dose level Low, time 7 day",9.33 u/L
same,PHOSPHORUS,"dose level Low, time 7 day",11.1 mg/dL
same,POTASSIUM,"dose level Low, time 7 day",5.85 MEQ/L
same,SODIUM,"dose level Low, time 7 day",143.98 MEQ/L
same,TOTAL BILIRUBIN,"dose level Low, time 7 day",0.1 mg/dL
same,TOTAL PROTEIN,"dose level Low, time 7 day",6.2 G/DL
same,URIC ACID,"dose level Low, time 7 day",0.62 mg/dL
